Patent US20240124410A1, “SMALL MOLECULES AND THEIR USE AS MALT1 INHIBITORS” (University of Pittsburgh - Of the Commonwealth System of …, priority 2021, published 2024)

Target: T1, BCL10-MALT1 interaction (Homo sapiens, UniProt Q9UDY8)
T1 construct: analyte a purified recombinant MALT1 fragment (DD+Ig1-2, Sumo-tagged Ig1-2 or GB-tagged DD)
T1 sequence (Q9UDY8 1-824): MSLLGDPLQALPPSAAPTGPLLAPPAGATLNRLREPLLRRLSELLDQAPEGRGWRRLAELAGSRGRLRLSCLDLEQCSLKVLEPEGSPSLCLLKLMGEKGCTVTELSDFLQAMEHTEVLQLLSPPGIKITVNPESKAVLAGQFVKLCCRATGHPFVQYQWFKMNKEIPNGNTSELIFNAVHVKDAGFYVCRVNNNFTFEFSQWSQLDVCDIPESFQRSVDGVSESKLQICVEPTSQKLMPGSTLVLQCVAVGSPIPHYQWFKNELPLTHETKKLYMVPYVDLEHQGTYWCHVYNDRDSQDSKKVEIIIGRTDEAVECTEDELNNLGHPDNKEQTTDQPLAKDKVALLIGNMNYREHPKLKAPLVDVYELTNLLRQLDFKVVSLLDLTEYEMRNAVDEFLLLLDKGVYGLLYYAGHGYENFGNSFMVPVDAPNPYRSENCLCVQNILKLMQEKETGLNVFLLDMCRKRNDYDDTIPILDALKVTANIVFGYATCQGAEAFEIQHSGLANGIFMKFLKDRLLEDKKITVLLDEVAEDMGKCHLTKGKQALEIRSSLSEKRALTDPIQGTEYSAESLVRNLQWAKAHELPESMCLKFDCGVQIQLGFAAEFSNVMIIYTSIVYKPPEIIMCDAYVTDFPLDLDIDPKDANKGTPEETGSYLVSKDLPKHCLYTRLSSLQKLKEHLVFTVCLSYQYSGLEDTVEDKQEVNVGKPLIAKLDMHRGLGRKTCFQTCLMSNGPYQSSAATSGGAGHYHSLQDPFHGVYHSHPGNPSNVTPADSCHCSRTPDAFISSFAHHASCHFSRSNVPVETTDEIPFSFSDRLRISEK
T1 sequence (O95999 1-233 partner): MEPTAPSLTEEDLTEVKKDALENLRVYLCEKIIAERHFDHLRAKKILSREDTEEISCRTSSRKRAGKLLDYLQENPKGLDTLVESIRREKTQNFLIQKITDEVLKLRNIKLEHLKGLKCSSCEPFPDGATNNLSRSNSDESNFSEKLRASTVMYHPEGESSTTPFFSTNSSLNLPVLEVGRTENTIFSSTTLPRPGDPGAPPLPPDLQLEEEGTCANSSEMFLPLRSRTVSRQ
Assay: SPR analysis of disruption of the BCL10-MALT1 interaction, dose-response (FIG. 2E); Biacore 2000, full-length Bcl10 (GST-tagged recombinant human, Abnova H00008915-P01) immobilized on sensor chip, MALT1 protein passed over
Assay type: binding
Excerpt: FIG. 2. In silico screening identifies small molecules targeting the predicted BCL10-binding groove within MALT1 (Ig1-2). (A) We performed a structure-guided in silico screen of 3 million compounds, using the LibDock program from Discovery Studio 3.5, in order to identify candidate molecules that could potentially fit within the identified groove in the MALT1 Ig1-2 domain. Lipinski's rule of five filters (LipinskiRo5) were applied to enrich for compounds with drug-like properties. Potential compound hits were then screened for their ability to disrupt the MALT1-BCL10 interaction using SPR analysis. 9 candidate compounds were then subjected to a second, ELISA-based MALT1-BCL10 interaction assay, identifying 2 compounds that could disrupt the interaction in both SPR and ELISA assays. M1i-124 and M1i-1255 are the two compounds identified to disrupt the BCL10-MALT1 interaction. […]
The LibDock program from Discovery Studio 3.5 was used to perform a structure-guided in silico screen of 3 million compounds to identify candidate molecules that could potentially fit within the identified groove of MALT1 Igl-Ig2 domain, found to be critical for BCL10-MALT1 interaction. […] Top hits were further evaluated for their potential to disrupt the BCL10-MALT1 interaction through secondary SPR and ELISA-based assays as described below. […]

O=S(=O)(NCc1ccc2c(c1)OCO2)c1ccc(Cc2ccc(S(=O)(=O)NCc3ccc4c(c3)OCO4)cc2)cc1 [M1i-124] gave an IC50 of 22 µM.
